US8455518B2, “Method of treating skin with microRNA modulators” (Avon Products, Inc., priority 2010, dated 2013)

Assays:
Assay type in all cases: cell-based
[1] = test system: miR-29a; assay: Inhibition of miR-29a by specific compounds in human dermal fibroblasts, qRT-PCR; conditions: 0.0005% compound, 48 hours; for inhibition of miR-29a relative to vehicle treated cells (in words): p<0.05; for miR-29a (%): serum-free, relative to vehicle treated cells
Method: (§1) The expression of miR-29a and miR29b in young versus old skin fibroblasts was examined by qRT-PCR.
(§2) Human dermal fibroblasts were grown in the absence of serum overnight, followed by treatment with 0.0005% of test compounds in the absence of serum for 48 hours. Cells were analyzed for expression levels of miR-29a and miR-29b by qRT-PCR as described in Examples 1 and 2. […] All values are statistically significant at p<0.05.

[2] = test system: collagen; assay: Collagen protein levels by ELISA in compound-treated human dermal fibroblasts; conditions: 0.0005% compound, 48 hours; for collagen protein levels as measured by ELISA (in words): p<0.05; for Collagen (%): serum-free, collagen protein by ELISA
[3] = test system: miR-29b; assay: Inhibition of miR-29b by specific compounds in human dermal fibroblasts, qRT-PCR; conditions: 0.0005% compound, 48 hours; for inhibition of miR-29b relative to vehicle treated cells (in words): p<0.05; for miR-29b (%): serum-free, relative to vehicle treated cells
Method: as §1, §2

Row | Compound | inhibition of miR-29a relative to vehicle treated cells (in words) [1] | miR-29a (%) [1] | collagen protein levels as measured by ELISA (in words) [2] | Collagen (%) [2] | inhibition of miR-29b relative to vehicle treated cells (in words) [3] | miR-29b (%) [3]
1 | CCOCCCNC(=O)c1cc(NC(=O)/C=C/c2ccccc2)ccc1N1CCC(Cc2ccccc2)CC1 [Compound 2, 2-(4-benzylpiperidin-1-yl)-N-(3-ethoxypropyl)-5-[(2E)-3-phenylprop-2-enamido]-benzamide] | significant inhibition | −33.67% | increased collagen protein levels | 30% | significant inhibition | −61.53%
2 | CC(C)CN(Cc1ccc(OS(C)(=O)=O)cc1)S(=O)(=O)c1ccccc1 [Compound 1, N-(2-methylpropyl)-N-[[4-[(methylsulfonyl)oxy]phenyl]methyl]-benzenesulfonamide] | significant inhibition | −61.57% | increased collagen protein levels | 102% | significant inhibition | −85.00%
